Measured values from US10961232B2, “Substituted pyrazines as ATR kinase inhibitors” (Vertex Pharmaceuticals Incorporated, priority 2008, dated 2021).

Molecular target: full-length ATR (Homo sapiens (Human), UniProt Q13535)
Assay: ATR inhibition assay (radioactive-phosphate incorporation)
Type: biochemical
Conditions: not given
Experimental: Example 76A: ATR Inhibition Assay
Compounds were screened for their ability to inhibit ATR kinase using a radioactive-phosphate incorporation assay. Assays were carried out in a mixture of 50 mM Tris/HCl (pH 7.5), 10 mM MgCl2 and 1 mM DTT.
Assays were carried out at 25° C. in the presence of 5 nM full-length ATR. An assay stock buffer solution was prepared containing all of the reagents listed above, with the exception of ATP and the test compound of interest. […] The plate was pre-incubated for 10 minutes at 25° C. and the reaction initiated by addition of 15 μL [γ-33P]ATP (final concentration 10 μM).
The reaction was stopped after […] by the addition of 30 μL, 0.1M phosphoric acid containing 2 mM ATP. A multiscreen phosphocellulose filter 96-well plate (Millipore, Cat no. MAPHN0B50) was pretreated with 100 μL, 0.2M phosphoric acid prior to the addition of 45 μL of the stopped assay mixture. […] After drying, 100 μL Optiphase ‘SuperMix’ liquid scintillation cocktail (Perkin Elmer) was added to the well prior to scintillation counting (1450 Microbeta Liquid Scintillation Counter, Wallac).
After removing mean background values for all of the data points, Ki(app) data were calculated from non-linear regression analysis of the initial rate data using the Prism software package (GraphPad Prism version 3.0cx for Macintosh, GraphPad Software, San Diego, Calif., USA).

full-length ATR, sequence (Q13535 whole entry): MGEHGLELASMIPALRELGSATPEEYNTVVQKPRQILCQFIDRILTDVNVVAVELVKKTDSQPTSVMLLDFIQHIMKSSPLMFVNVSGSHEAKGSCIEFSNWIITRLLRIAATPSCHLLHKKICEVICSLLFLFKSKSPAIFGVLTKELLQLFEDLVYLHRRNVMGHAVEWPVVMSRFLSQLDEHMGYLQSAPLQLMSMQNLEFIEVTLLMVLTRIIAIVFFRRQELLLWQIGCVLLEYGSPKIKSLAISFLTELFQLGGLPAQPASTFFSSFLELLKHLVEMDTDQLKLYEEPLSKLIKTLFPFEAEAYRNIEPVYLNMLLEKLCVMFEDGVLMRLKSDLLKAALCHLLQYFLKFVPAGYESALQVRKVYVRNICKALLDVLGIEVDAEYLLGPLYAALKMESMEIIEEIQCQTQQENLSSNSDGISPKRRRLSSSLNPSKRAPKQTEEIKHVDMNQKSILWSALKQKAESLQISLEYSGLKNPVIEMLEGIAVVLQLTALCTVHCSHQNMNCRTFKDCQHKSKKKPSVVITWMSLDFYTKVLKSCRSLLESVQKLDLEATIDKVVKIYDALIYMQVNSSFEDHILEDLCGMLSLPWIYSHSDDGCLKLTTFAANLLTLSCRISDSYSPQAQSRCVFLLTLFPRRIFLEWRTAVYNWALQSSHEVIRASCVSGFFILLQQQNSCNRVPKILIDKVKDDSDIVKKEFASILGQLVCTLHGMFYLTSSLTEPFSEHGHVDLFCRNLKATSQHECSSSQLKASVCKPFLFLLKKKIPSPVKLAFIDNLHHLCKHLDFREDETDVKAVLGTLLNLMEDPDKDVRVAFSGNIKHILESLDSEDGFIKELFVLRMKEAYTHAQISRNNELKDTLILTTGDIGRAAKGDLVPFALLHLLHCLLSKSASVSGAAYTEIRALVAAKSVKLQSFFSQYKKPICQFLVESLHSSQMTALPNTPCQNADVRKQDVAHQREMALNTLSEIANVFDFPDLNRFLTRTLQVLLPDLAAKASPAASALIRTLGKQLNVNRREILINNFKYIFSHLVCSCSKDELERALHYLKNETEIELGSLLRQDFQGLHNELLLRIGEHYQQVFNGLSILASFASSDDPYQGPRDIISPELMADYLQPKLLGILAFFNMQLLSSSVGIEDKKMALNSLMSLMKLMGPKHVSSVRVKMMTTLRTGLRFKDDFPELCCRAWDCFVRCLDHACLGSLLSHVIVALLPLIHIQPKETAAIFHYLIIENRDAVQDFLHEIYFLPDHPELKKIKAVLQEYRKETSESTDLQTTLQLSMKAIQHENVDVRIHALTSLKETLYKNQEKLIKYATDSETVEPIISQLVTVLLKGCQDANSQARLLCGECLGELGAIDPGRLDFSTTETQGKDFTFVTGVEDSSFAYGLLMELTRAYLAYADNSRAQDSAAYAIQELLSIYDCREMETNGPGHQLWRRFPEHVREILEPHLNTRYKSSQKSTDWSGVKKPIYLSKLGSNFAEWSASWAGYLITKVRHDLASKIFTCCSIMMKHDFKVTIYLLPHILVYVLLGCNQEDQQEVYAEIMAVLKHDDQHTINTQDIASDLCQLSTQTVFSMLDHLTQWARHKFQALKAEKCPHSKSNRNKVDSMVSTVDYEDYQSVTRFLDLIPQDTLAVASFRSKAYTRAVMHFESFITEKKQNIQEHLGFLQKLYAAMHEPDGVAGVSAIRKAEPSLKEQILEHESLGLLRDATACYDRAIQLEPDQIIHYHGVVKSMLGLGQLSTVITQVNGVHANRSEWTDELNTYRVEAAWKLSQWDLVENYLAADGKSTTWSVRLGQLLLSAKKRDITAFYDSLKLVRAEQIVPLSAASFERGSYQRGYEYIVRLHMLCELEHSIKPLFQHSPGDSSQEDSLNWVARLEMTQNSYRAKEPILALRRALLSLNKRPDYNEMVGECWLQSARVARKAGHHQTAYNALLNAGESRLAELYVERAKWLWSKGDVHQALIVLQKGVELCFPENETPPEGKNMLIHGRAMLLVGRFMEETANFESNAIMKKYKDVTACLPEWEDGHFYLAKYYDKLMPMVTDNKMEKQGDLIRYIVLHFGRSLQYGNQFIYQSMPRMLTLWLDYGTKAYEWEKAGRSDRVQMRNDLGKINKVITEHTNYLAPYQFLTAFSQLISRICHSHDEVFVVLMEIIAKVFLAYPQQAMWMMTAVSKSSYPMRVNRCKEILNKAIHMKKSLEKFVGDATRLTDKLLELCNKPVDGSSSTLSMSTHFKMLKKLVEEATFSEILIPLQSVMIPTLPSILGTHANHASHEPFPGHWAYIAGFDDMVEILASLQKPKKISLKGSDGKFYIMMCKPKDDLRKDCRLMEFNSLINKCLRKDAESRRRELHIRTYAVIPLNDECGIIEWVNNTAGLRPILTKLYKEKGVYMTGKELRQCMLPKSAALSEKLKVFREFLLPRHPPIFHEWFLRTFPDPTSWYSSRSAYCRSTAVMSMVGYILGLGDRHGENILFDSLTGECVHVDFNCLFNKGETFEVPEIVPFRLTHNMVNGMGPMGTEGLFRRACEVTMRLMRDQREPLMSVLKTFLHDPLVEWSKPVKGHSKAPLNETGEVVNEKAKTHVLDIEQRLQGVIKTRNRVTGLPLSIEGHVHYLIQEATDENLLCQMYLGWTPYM

| Compound | Ki [nM] |
| --- | --- |
| CN(C)C1CCN(C(=O)c2cccc(-c3cnc(N)c(C(=O)Nc4ccccc4)n3)c2)C1 (stereo not shown) [Compound I-55, 3-amino-6-(3-(3-(dimethylamino)pyrrolidine-1-carbonyl)phenyl)-N-phenylpyrazine-2-carboxamide] | 100 to 5000 |
| Nc1ncc(-c2cccc(C(=O)NC3CCC(O)CC3)c2)nc1C(=O)Nc1ccccc1 (stereo not shown) [Compound I-57, 3-amino-6-(3-(4-hydroxycyclohexylcarbamoyl)phenyl)-N-phenylpyrazine-2-carboxamide] | 100 to 5000 |
| CN(C)C1CCN(C(=O)c2ccc(-c3cnc(N)c(C(=O)Nc4ccccc4)n3)cc2)C1 (stereo not shown) [Compound I-76, 3-amino-6-(4-(3-(dimethylamino)pyrrolidine-1-carbonyl)phenyl)-N-phenylpyrazine-2-carboxamide] | 10 to 100 |
| Nc1ncc(-c2ccc(C(=O)N3CCCNCC3)cc2)nc1-c1noc(-c2ccccc2)n1 [IA-2] | 10 to 100 |
| CC(C)(C)CCN1CCCN(C(=O)c2ccc(-c3cnc(N)c(-c4nnc(-c5ccccc5)o4)n3)cc2)CC1 [IA-27] | 10 to 100 |
| Nc1ncc(-c2ccc(C(=O)N3CCCNCC3)c3ccccc23)nc1-c1nnc(-c2ccccc2)o1 [IA-48] | 10 to 100 |
| CC(NC(=O)OC(C)(C)C)c1cccc(-c2nnc(-c3nc(-c4ccc(S(=O)(=O)C(C)C)cc4)cnc3N)o2)c1 (stereo not shown) [IA-154, tert-butyl N-[1-[3-[5-[3-amino-6-(4-isopropylsulfonylphenyl)pyrazin-2-yl]-1,3,4-oxadiazol-2-yl]phenyl]ethyl]carbamate] | ≤ 10 |

Same assay, conditions: ATR Inhibition Ki values; 5 nM full-length ATR, 10 μM ATP

| Compound | Ki [nM] |
| --- | --- |
| CS(=O)(=O)c1ccc(-c2cnc(N)c(-c3nnc(-c4ccccc4)o3)n2)cc1 [IA-89, 5-(4-methylsulfonylphenyl)-3-(5-phenyl-1,3,4-oxadiazol-2-yl)pyrazin-2-amine] | ≤ 10 |
| C[S+]([O-])c1ccc(-c2cnc(N)c(-c3nnc(-c4ccccc4)o3)n2)cc1 (stereo not shown) [IA-274, 5-(4-methylsulfinylphenyl)-3-(5-phenyl-1,3,4-oxadiazol-2-yl)pyrazin-2-amine] | ≤ 10 |
| CNCc1ccc(-c2nnc(-c3nc(-c4ccc(S(=O)(=O)C(C)C)c(OC(F)(F)F)c4)cnc3N)o2)cc1 [IA-290, 5-[4-isopropylsulfonyl-3-(trifluoromethoxy)phenyl]-3-[5-[4-(methylaminomethyl)phenyl]-1,3,4-oxadiazol-2-yl]pyrazin-2-amine] | ≤ 10 |
| CNCc1ccc(-c2nnc(-c3nc(-c4ccc(S(=O)(=O)C(C)CCOC)cc4)cnc3N)o2)c(F)c1 (stereo not shown) [IA-332, 3-[5-[2-fluoro-4-(methylaminomethyl)phenyl]-1,3,4-oxadiazol-2-yl]-5-[4-(3-methoxy-1-methyl-propyl)sulfonylphenyl]pyrazin-2-amine] | ≤ 10 |
| CCc1cccc(NC(=O)c2nc(-c3ccc(S(C)(=O)=O)cc3)cnc2N)n1 [VII-4] | 10 to 100 |
| Cc1cccc(NC(=O)c2nc(-c3ccc(S(C)(=O)=O)cc3)cnc2N)n1 [VII-5] | 10 to 100 |
